Values of other authors as cited in patent EP1783518B1, “Functionalized dyes and use thereof in ophthalmic lens material” (Ophtec B.V., priority 2005, dated 2007).
Converted amounts (≈) assume the structure as drawn.

solubility in water	solubility in EGME (ethylene glycol monomethyl ether (EGME))	Structure (SMILES)
40 mg/mL		Cc1cc(N=Nc2ccc(N=Nc3ccc(S(=O)(=O)O)cc3)cc2)cc(C(=O)O)c1O.[Na+] [Mordant Orange 10]
	80 mg/mL (≈ 253 mM)	Cc1cc(N=Nc2ccc(N=Nc3ccccc3)cc2)ccc1O [Disperse Yellow 7, 4-[[p-(phenylazo)phenyl]azo]-o-cresol]
40 mg/mL		O=C(O)c1cc(N=Nc2ccc(N=Nc3ccc(S(=O)(=O)[O-])cc3)cc2)ccc1[O-].[Na+].[Na+] [Mordant Orange 6]
